Converted amounts (≈) assume the structure as drawn.
What was measured:
Type in all cases: functional
Staphylococcus aureus [1] = assay: Antimicrobial activity against daptomycin-non-susceptible Staphylococcus aureus 5017 incubated anaerobically at 37 degC for 48 hrs by agar dilution method; conditions: Staphylococcus aureus, 5017, 48 h
Clostridioides difficile [2] = assay: Potency index, ratio of MIC for daptomycin to MIC for test compound against daptomycin-resistant Clostridium difficile NAP1 incubated anaerobically at 37 degC for 48 hrs by agar dilution method
Staphylococcus aureus [3] = assay: Antimicrobial activity against daptomycin-non-susceptible Staphylococcus aureus 5006 incubated anaerobically at 37 degC for 48 hrs by agar dilution method; conditions: Staphylococcus aureus, 5006, 48 h
Staphylococcus aureus [4] = assay: Antimicrobial activity against daptomycin-non-susceptible Staphylococcus aureus 5033 incubated anaerobically at 37 degC for 48 hrs by agar dilution method; conditions: Staphylococcus aureus, 5033, 48 h
Staphylococcus aureus [5] = assay: Potency index, ratio of MIC for daptomycin to MIC for test compound against daptomycin-non-susceptible Staphylococcus aureus 5034 incubated anaerobically at 37 degC for 48 hrs by agar dilution method
Staphylococcus aureus [6] = assay: Antimicrobial activity against daptomycin-non-susceptible Staphylococcus aureus 5030 incubated anaerobically at 37 degC for 48 hrs by agar dilution method; conditions: Staphylococcus aureus, 5030, 48 h
Clostridioides difficile [7] = assay: Antimicrobial activity against daptomycin-resistant Clostridium difficile ATCC 43596 infected in Syrian golden hamster model of Clostridium difficile-associated diarrhea assessed as protection against microbial infection by measuring survival at day 25 to 26 at 0.5 mg/kg treated once daily for 5 consecutive days starting 4 hrs after spore inoculation
Staphylococcus aureus [8] = assay: Antimicrobial activity against daptomycin-non-susceptible Staphylococcus aureus 5012 incubated anaerobically at 37 degC for 48 hrs by agar dilution method; conditions: Staphylococcus aureus, 5012, 48 h
Staphylococcus aureus [9] = assay: Potency index, ratio of MIC for daptomycin to MIC for test compound against daptomycin-non-susceptible Staphylococcus aureus 399 incubated anaerobically at 37 degC for 48 hrs by agar dilution method
Staphylococcus aureus [10] = assay: Potency index, ratio of MIC for daptomycin to MIC for test compound against daptomycin-non-susceptible Staphylococcus aureus 5076 incubated anaerobically at 37 degC for 48 hrs by agar dilution method
Staphylococcus aureus [11] = assay: Antimicrobial activity against daptomycin-non-susceptible Staphylococcus aureus 5014 incubated anaerobically at 37 degC for 48 hrs by agar dilution method; conditions: Staphylococcus aureus, 5014, 48 h
Clostridioides difficile [12] = assay: Antimicrobial activity against vancomycin-resistant Clostridium difficile
Enterococcus faecium = assay: Antimicrobial activity against daptomycin-resistant Enterococcus faecium ATCC 6569 incubated anaerobically at 37 degC for 48 hrs by agar dilution method; conditions: ATCC 6569, 48 h
Staphylococcus aureus [13] = assay: Potency index, ratio of MIC for daptomycin to MIC for test compound against daptomycin-non-susceptible Staphylococcus aureus 5030 incubated anaerobically at 37 degC for 48 hrs by agar dilution method
Staphylococcus aureus [14] = assay: Potency index, ratio of MIC for daptomycin to MIC for test compound against daptomycin-non-susceptible Staphylococcus aureus 1146 incubated anaerobically at 37 degC for 48 hrs by agar dilution method
Staphylococcus aureus [15] = assay: Potency index, ratio of MIC for daptomycin to MIC for test compound against daptomycin-non-susceptible Staphylococcus aureus 5063 incubated anaerobically at 37 degC for 48 hrs by agar dilution method
Staphylococcus aureus [16] = assay: Antimicrobial activity against daptomycin-non-susceptible Staphylococcus aureus 399 incubated anaerobically at 37 degC for 48 hrs by agar dilution method; conditions: Staphylococcus aureus, 399, 48 h
Staphylococcus aureus [17] = assay: Potency index, ratio of MIC for daptomycin to MIC for test compound against daptomycin-non-susceptible Staphylococcus aureus 5014 incubated anaerobically at 37 degC for 48 hrs by agar dilution method
Staphylococcus aureus [18] = assay: Potency index, ratio of MIC for daptomycin to MIC for test compound against daptomycin-non-susceptible Staphylococcus aureus 5003 incubated anaerobically at 37 degC for 48 hrs by agar dilution method
Staphylococcus aureus [19] = assay: Antimicrobial activity against daptomycin-non-susceptible Staphylococcus aureus 5016 incubated anaerobically at 37 degC for 48 hrs by agar dilution method; conditions: Staphylococcus aureus, 5016, 48 h
Staphylococcus aureus [20] = assay: Potency index, ratio of MIC for daptomycin to MIC for test compound against daptomycin-non-susceptible Staphylococcus aureus 1616 incubated anaerobically at 37 degC for 48 hrs by agar dilution method
Staphylococcus aureus [21] = assay: Antimicrobial activity against daptomycin-non-susceptible Staphylococcus aureus 5060 incubated anaerobically at 37 degC for 48 hrs by agar dilution method; conditions: Staphylococcus aureus, 5060, 48 h
Staphylococcus aureus [22] = assay: Potency index, ratio of MIC for daptomycin to MIC for test compound against daptomycin-non-susceptible Staphylococcus aureus 5080 incubated anaerobically at 37 degC for 48 hrs by agar dilution method
Staphylococcus aureus [23] = assay: Potency index, ratio of MIC for daptomycin to MIC for test compound against daptomycin-non-susceptible Staphylococcus aureus 5016 incubated anaerobically at 37 degC for 48 hrs by agar dilution method
Clostridioides difficile [24] = assay: Antimicrobial activity against daptomycin-resistant Clostridium difficile NAP1 incubated anaerobically at 37 degC for 48 hrs by agar dilution method; conditions: NAP1, 48 h
Staphylococcus aureus [25] = assay: Antimicrobial activity against daptomycin-non-susceptible Staphylococcus aureus 5059 incubated anaerobically at 37 degC for 48 hrs by agar dilution method; conditions: Staphylococcus aureus, 5059, 48 h
Staphylococcus aureus [26] = assay: Antimicrobial activity against daptomycin-non-susceptible Staphylococcus aureus 42 incubated anaerobically at 37 degC for 48 hrs by agar dilution method; conditions: Staphylococcus aureus, 42, 48 h
Staphylococcus aureus [27] = assay: Potency index, ratio of MIC for daptomycin to MIC for test compound against daptomycin-non-susceptible Staphylococcus aureus 5006 incubated anaerobically at 37 degC for 48 hrs by agar dilution method
Clostridioides difficile [28] = assay: Antimicrobial activity against metronidazole-resistant Clostridium difficile
Staphylococcus aureus [29] = assay: Potency index, ratio of MIC for daptomycin to MIC for test compound against daptomycin-non-susceptible Staphylococcus aureus 5004 incubated anaerobically at 37 degC for 48 hrs by agar dilution method
Staphylococcus aureus [30] = assay: Potency index, ratio of MIC for daptomycin to MIC for test compound against daptomycin-non-susceptible Staphylococcus aureus 42 incubated anaerobically at 37 degC for 48 hrs by agar dilution method
Staphylococcus aureus [31] = assay: Potency index, ratio of MIC for daptomycin to MIC for test compound against daptomycin-non-susceptible Staphylococcus aureus 5017 incubated anaerobically at 37 degC for 48 hrs by agar dilution method
Staphylococcus aureus [32] = assay: Potency index, ratio of MIC for daptomycin to MIC for test compound against daptomycin-non-susceptible Staphylococcus aureus 1145 incubated anaerobically at 37 degC for 48 hrs by agar dilution method
Staphylococcus aureus [33] = assay: Antimicrobial activity against daptomycin-non-susceptible Staphylococcus aureus 5080 incubated anaerobically at 37 degC for 48 hrs by agar dilution method; conditions: Staphylococcus aureus, 5080, 48 h
Staphylococcus aureus [34] = assay: Potency index, ratio of MIC for daptomycin to MIC for test compound against daptomycin-non-susceptible Staphylococcus aureus 5059 incubated anaerobically at 37 degC for 48 hrs by agar dilution method
Staphylococcus aureus [35] = assay: Antimicrobial activity against daptomycin-non-susceptible Staphylococcus aureus 1616 incubated anaerobically at 37 degC for 48 hrs by agar dilution method; conditions: Staphylococcus aureus, 1616, 48 h
Staphylococcus aureus [36] = assay: Antimicrobial activity against daptomycin-susceptible Staphylococcus aureus ATCC 29213 incubated anaerobically at 37 degC for 48 hrs by agar dilution method; conditions: ATCC 29213, 48 h

## CCCCCc1ccc(/C(C)=C/C(=O)N[C@@H](Cc2c[nH]c3ccccc23)C(=O)N[C@H](CC(N)=O)C(=O)N[C@@H](CC(=O)O)C(=O)N[C@@H]2C(=O)NCC(=O)N[C@@H](CCCN)C(=O)N[C@@H](CC(=O)O)C(=O)N[C@H](C)C(=O)N[C@@H](CC(=O)O)C(=O)NCC(=O)N[C@H](CO)C(=O)N[C@@H]([C@@H](C)CC(=O)O)C(=O)N[C@@H](CC(=O)c3ccccc3N)C(=O)O[C@@H]2C)cc1
Staphylococcus aureus [1]
  MIC: 0.5 µg/mL (≈ 0.297 µM)
Clostridioides difficile [2]
  Ratio: 4
Staphylococcus aureus [3]
  MIC: 0.5 µg/mL (≈ 0.297 µM)
Staphylococcus aureus [4]
  MIC: 0.25 µg/mL (≈ 0.149 µM)
Staphylococcus aureus [5]
  Ratio: 2
Staphylococcus aureus [6]
  MIC: 1 µg/mL (≈ 0.595 µM)
Clostridioides difficile [7]
  survival at 0.5 mg/kg: 100%
Staphylococcus aureus [8]
  MIC: 0.25 µg/mL (≈ 0.149 µM)
Staphylococcus aureus [9]
  Ratio: 2
Staphylococcus aureus [10]
  Ratio: 2
Staphylococcus aureus [11]
  MIC: 0.25 µg/mL (≈ 0.149 µM)
Clostridioides difficile [12]
  MIC: 0.125 µg/mL (≈ 0.0744 µM)
Enterococcus faecium
  MIC: 4 µg/mL (≈ 2.38 µM)
Staphylococcus aureus [13]
  Ratio: 2
Staphylococcus aureus [14]
  Ratio: 2
Staphylococcus aureus [15]
  Ratio: 2
Staphylococcus aureus [16]
  MIC: 0.125 µg/mL (≈ 0.0744 µM)
Staphylococcus aureus [17]
  Ratio: 2
Staphylococcus aureus [18]
  Ratio: 2
Staphylococcus aureus [19]
  MIC: 0.5 µg/mL (≈ 0.297 µM)
Staphylococcus aureus [20]
  Ratio: 2
Staphylococcus aureus [21]
  MIC: 1 µg/mL (≈ 0.595 µM)
Staphylococcus aureus [22]
  Ratio: 2
Staphylococcus aureus [23]
  Ratio: 2
Clostridioides difficile [24]
  MIC: 0.5 µg/mL (≈ 0.297 µM)
Staphylococcus aureus [25]
  MIC: 1 µg/mL (≈ 0.595 µM)
Staphylococcus aureus [26]
  MIC: 0.125 µg/mL (≈ 0.0744 µM)
Staphylococcus aureus [27]
  Ratio: 2
Clostridioides difficile [28]
  MIC: 0.5 µg/mL (≈ 0.297 µM)
Staphylococcus aureus [29]
  Ratio: 2
Staphylococcus aureus [30]
  Ratio: 2
Staphylococcus aureus [31]
  Ratio: 2
Staphylococcus aureus [32]
  Ratio: 2
Staphylococcus aureus [33]
  MIC: 1 µg/mL (≈ 0.595 µM)
Staphylococcus aureus [34]
  Ratio: 2
Staphylococcus aureus [35]
  MIC: 2 µg/mL (≈ 1.19 µM)
Staphylococcus aureus [36]
  MIC: 0.25 µg/mL (≈ 0.149 µM)

Reference: ChEMBL document CHEMBL3576778, “Structure-Activity Relationship Studies of a Series of Semisynthetic Lipopeptides Leading to the Discovery of Surotomycin, a Novel Cyclic Lipopeptide Being Developed for the Treatment of Clostridium difficile-Associated Diarrhea” (J Med Chem, 2015)
